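How tested: cells in 96-well plates exposed to compound for 48 hours at five concentrations. Abbreviation: GI50, concentration required for 50% inhibition of growth.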 Calls of active or inactive are those of the source. No stated cut-off is given here; in the data, active = GI50 up to about 1.1 µM and inactive = higher.
Legend:
Assay in all cases: inhibition of tumour cell growth, NCI panel, 48 h
DMS-114 = system: DMS-114
DMS-273 = system: DMS-273
HCC 2998 = system: HCC 2998
IGROV-1 = system: IGROV-1
K562 = system: K562
KM12 = system: KM12
M19-MEL = system: M19-MEL
NCI-H460 = system: NCI-H460
OVCAR-5 = system: OVCAR-5
RPMI-8226 = system: RPMI-8226
SF-539 = system: SF-539
SNB-19 = system: SNB-19
SW-620 = system: SW-620
UO-31 = system: UO-31
EKVX = system: EKVX
TK-10 = system: TK-10

Measured: GI50

O=NN(CCF)C(=O)NC1CCSCC1
inactive: DMS-114 > 100 µM | DMS-273 > 100 µM | HCC 2998 > 100 µM | IGROV-1 > 100 µM | K562 > 31.6 µM | KM12 > 100 µM | M19-MEL > 100 µM | NCI-H460 > 100 µM | OVCAR-5 > 100 µM | RPMI-8226 > 100 µM | SF-539 > 100 µM | SNB-19 > 100 µM | SW-620 > 100 µM | UO-31 > 100 µM

CC1CC2=Nc3ccccc3NC(c3ccccc3)C2=C(O)O1 (stereo not drawn)
inactive: DMS-114 > 100 µM | DMS-273 > 100 µM | EKVX > 100 µM | HCC 2998 > 100 µM | IGROV-1 > 100 µM | K562 > 100 µM | KM12 > 100 µM | M19-MEL > 100 µM | NCI-H460 > 100 µM | OVCAR-5 > 100 µM | SF-539 > 100 µM | SNB-19 > 100 µM | SW-620 > 100 µM | TK-10 > 100 µM | UO-31 > 100 µM

COc1nc(O)c(N)c(NC2OC(CO)C(O)C(O)C2O)n1 (stereo not drawn)
inactive: DMS-114 > 100 µM | DMS-273 > 100 µM | EKVX > 100 µM | HCC 2998 > 100 µM | IGROV-1 > 100 µM | K562 > 90.8 µM | KM12 > 100 µM | M19-MEL > 100 µM | NCI-H460 > 100 µM | OVCAR-5 > 100 µM | RPMI-8226 > 100 µM | SF-539 > 100 µM | SNB-19 > 100 µM | SW-620 > 100 µM | UO-31 > 100 µM

COc1ccccc1C1C(C(=O)O)=C(CO)Oc2cc3c(cc21)OCO3 (stereo not drawn)
inactive: DMS-114 > 100 µM | DMS-273 > 100 µM | EKVX > 100 µM | IGROV-1 > 100 µM | K562 > 100 µM | M19-MEL > 100 µM | NCI-H460 > 100 µM | RPMI-8226 > 100 µM | SF-539 > 100 µM | SNB-19 > 100 µM | SW-620 > 100 µM | TK-10 > 100 µM | UO-31 > 100 µM

CCCCSCC(NC(=O)/C=C/c1c(C)[nH]c(=O)[nH]c1=O)C(=O)OC (stereo not drawn)
inactive: DMS-114 30.1 µM | DMS-273 88.3 µM | EKVX 34.2 µM | HCC 2998 29 µM | IGROV-1 84.5 µM | K562 44.1 µM | KM12 24.9 µM | M19-MEL 38.4 µM | NCI-H460 57.5 µM | OVCAR-5 77.1 µM | RPMI-8226 104 µM | SF-539 61.2 µM | SNB-19 29 µM | SW-620 78 µM | UO-31 49.4 µM

CCOC(=O)C1=C(Nc2ccccc2)OC/C1=N\NC(=O)Cc1ccccc1
inactive: DMS-114 > 50 µM | EKVX > 50 µM | HCC 2998 > 50 µM | IGROV-1 > 50 µM | K562 > 50 µM | KM12 > 50 µM | M19-MEL > 50 µM | NCI-H460 > 50 µM | OVCAR-5 > 50 µM | RPMI-8226 > 50 µM | SF-539 > 50 µM | SNB-19 > 50 µM | SW-620 > 50 µM | TK-10 > 50 µM | UO-31 > 50 µM

CSc1nc(NC(=O)O)c(N(C(C)=O)C(=O)O)c(=O)n1C
inactive: DMS-114 > 100 µM | DMS-273 > 100 µM | EKVX > 100 µM | HCC 2998 > 100 µM | IGROV-1 > 100 µM | K562 > 100 µM | KM12 > 100 µM | M19-MEL > 100 µM | NCI-H460 > 100 µM | OVCAR-5 > 100 µM | RPMI-8226 > 100 µM | SF-539 > 100 µM | SNB-19 > 100 µM | SW-620 > 100 µM | UO-31 > 100 µM

Cc1cc(C(C)(C)C)cc(Cc2cc(C(C)(C)C)cc(Cc3cc(C(C)(C)C)cc(C)c3O)c2O)c1O
inactive: DMS-114 4.21 µM | DMS-273 10.9 µM | EKVX 10.8 µM | IGROV-1 11.3 µM | K562 4.54 µM | KM12 9.66 µM | M19-MEL 3.77 µM | NCI-H460 10.1 µM | OVCAR-5 17.5 µM | RPMI-8226 2.47 µM | SF-539 7.71 µM | SNB-19 13 µM | SW-620 5.28 µM | TK-10 16.3 µM | UO-31 13.2 µM

COC1=CC(=O)c2ccccc2C1(CCC=C(C)C)C1=NC(C)(C)CO1 (stereo not drawn)
inactive: DMS-273 72.4 µM | EKVX 71.8 µM | IGROV-1 84.5 µM | K562 28.4 µM | KM12 > 100 µM | M19-MEL 48.2 µM | NCI-H460 > 100 µM | RPMI-8226 32.2 µM | SF-539 > 100 µM | SNB-19 84.9 µM | SW-620 > 100 µM | TK-10 > 100 µM | UO-31 28.6 µM

N=S(c1ccccc1[N+](=O)[O-])c1ccccc1[N+](=O)[O-]
inactive: DMS-273 3.05 µM | EKVX 7.73 µM | HCC 2998 5.32 µM | IGROV-1 2.34 µM | KM12 6.65 µM | M19-MEL 2.43 µM | OVCAR-5 6.08 µM | RPMI-8226 2.08 µM | SF-539 4.58 µM | SNB-19 8.07 µM | TK-10 2.69 µM | UO-31 3.08 µM

CC1C=CC(=O)C(n2cc(F)c(=O)[nH]c2=O)O1 (stereo not drawn)
inactive: DMS-114 15.9 µM | DMS-273 21.4 µM | EKVX 22.5 µM | IGROV-1 20.8 µM | K562 17.7 µM | M19-MEL 18.5 µM | NCI-H460 23.3 µM | RPMI-8226 14.4 µM | SF-539 17.2 µM | SNB-19 22.2 µM | SW-620 17.6 µM | TK-10 18.7 µM | UO-31 16.4 µM

CC1(C)CC23C4COC(=O)C2CCC1C3CC4=O (stereo not drawn)
inactive: DMS-273 19.9 µM | EKVX 26.7 µM | HCC 2998 13.9 µM | IGROV-1 21.9 µM | K562 9.84 µM | KM12 12.6 µM | M19-MEL 11.9 µM | NCI-H460 11.1 µM | OVCAR-5 32.6 µM | RPMI-8226 5.28 µM | SF-539 19.5 µM | SNB-19 28.3 µM | SW-620 3.04 µM | UO-31 28.6 µM

CC1Cc2c(N)nc(N3CCOCC3)nc2NC1=O (stereo not drawn)
inactive: DMS-114 > 100 µM | DMS-273 > 100 µM | EKVX > 100 µM | IGROV-1 > 100 µM | K562 > 100 µM | KM12 > 100 µM | M19-MEL > 100 µM | NCI-H460 > 100 µM | RPMI-8226 > 100 µM | SF-539 > 100 µM | SNB-19 > 100 µM | SW-620 > 100 µM | TK-10 > 100 µM | UO-31 > 100 µM

CC(C(=O)C(C)O[Si](c1ccccc1)(c1ccccc1)C(C)(C)C)=P(c1ccccc1)(c1ccccc1)c1ccccc1 (stereo not drawn)
inactive: DMS-114 2.39 µM | EKVX 12.9 µM | HCC 2998 3.57 µM | IGROV-1 3.7 µM | K562 2.95 µM | KM12 3.61 µM | M19-MEL 3.11 µM | NCI-H460 3.69 µM | OVCAR-5 11 µM | RPMI-8226 2.34 µM | SF-539 3.89 µM | SNB-19 3.96 µM | SW-620 3.91 µM | TK-10 4.76 µM | UO-31 5.28 µM

— ChEMBL document CHEMBL1201862, “PubChem BioAssay data set” (2004)
